Assay [1] deals with T1, focal adhesion kinase (FAK) autophosphorylation at tyrosine 397 in HT29 cells (Homo sapiens, UniProt Q05397).
T1 construct: endogenous in cells; host or cells: HT29
As to the kind of experiment: Cellular testing of FAK inhibitors: FAK autophosphorylation at tyrosine 397 in HT29 cells (Luminex-based assay). In kind it is cell-based. The note with it: 30 min serum-free. As to the method: 2. Assay Principle for Celluar Testing of FAK Inhibitors
Cellular activity of focal adhesion kinase (FAK) is determined by the degree of FAK autophosphorylation at tyrosine 397 using a Luminex-based assay. HT29 cells are plated with 30,000 cells per well of a 96-well plate in 100 μl medium (90% DMEM/10% FCS). At the following day, test compounds are added in a serial dilution under serum-free conditions for 30 min. Then, cells were lysed with 90 μl lysis buffer (20 mM Tris/HCl pH 8.0, 150 mM NaCl, 1% NP40, 10% Glycerol, 1% Phosphatase-Inhibitor II, 20 mM […]-Glycerolphosphat, 0.1% Protease-Inhibitor Cocktail III, 0.01% Benzonase) and lysates were cleared by centrifugation through a 96-well filter plate (0.65 μm). Samples were incubated with Luminex-beads which were coupled with an anti-total FAK antibody overnight at 4° C. with under gentle agitation. For detection of phospho-Y397-FAK a phosphospecific antibody and a species specific PE-labeled secondary antibody are added. The amount of phospho-Y397-FAK is determined in a Luminex100 machine measuring 100 events per well within 60 seconds.
Counts from samples treated with a FAK reference inhibitor are subtracted as pharmacological blank. Counts from samples treated with test compounds are calculated as percent of control from solvent treated (0.3% DMSO) samples. IC50 values were determined using AssayExplorer software.

Assay [2] deals with T2, GST-FAK (N-terminal GST fusion with truncated human FAK (376-1052 (end) amino acids)) (Homo sapiens, UniProt Q05397).
T2 construct: truncated human FAK (376-1052 (end) amino acids)
T2 sequence (Q05397 376-1052): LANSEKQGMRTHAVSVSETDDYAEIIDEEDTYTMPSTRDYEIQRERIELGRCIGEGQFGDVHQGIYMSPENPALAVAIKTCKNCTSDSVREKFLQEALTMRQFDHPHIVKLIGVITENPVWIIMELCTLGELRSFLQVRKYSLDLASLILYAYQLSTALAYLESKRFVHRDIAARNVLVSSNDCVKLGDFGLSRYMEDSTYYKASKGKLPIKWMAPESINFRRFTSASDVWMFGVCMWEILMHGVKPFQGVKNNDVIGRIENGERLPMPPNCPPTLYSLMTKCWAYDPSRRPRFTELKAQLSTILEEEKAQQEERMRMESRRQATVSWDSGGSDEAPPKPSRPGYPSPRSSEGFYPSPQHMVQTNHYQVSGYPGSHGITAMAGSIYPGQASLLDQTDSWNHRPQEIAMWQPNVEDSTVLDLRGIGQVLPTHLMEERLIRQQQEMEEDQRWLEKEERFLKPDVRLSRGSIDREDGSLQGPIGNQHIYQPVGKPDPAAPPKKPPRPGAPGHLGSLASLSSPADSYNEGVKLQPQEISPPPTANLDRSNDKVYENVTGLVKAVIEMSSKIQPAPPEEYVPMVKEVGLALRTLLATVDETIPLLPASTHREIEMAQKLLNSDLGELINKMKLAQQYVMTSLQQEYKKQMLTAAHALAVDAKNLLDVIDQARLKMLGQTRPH
As to the kind of experiment: Biochemical enzyme assay for FAK activity (Caliper LC3000 mobility shift). The conditions noted are these: 100 uM ATP. Summed up:
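Inhibitor dose series in DMSO were incubated 90 min at 25 °C with truncated GST-tagged human FAK (0.067 ng/µl) and FITC-labelled peptide substrate (1 µM), with ATP at 100 µM and FERM peptide at 1 mM (pH 7.5 HEPES). After EDTA quench, phosphorylated and unphosphorylated peptides were resolved electrophoretically. Percent conversion was fitted for IC50.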

Where [3] appears, read: Table 2, phospho-Y397-FAK, read-out: HT-29 IC50.
Where [4] appears, read: Table 3, phospho-Y397-FAK, read-out: HT-29 IC50.
Setting [5] is: Table 4, phospho-Y397-FAK, read-out: IC50 HT-29.

Results on 25 compounds are retold here after patent US9199962B2, “Substituted azaheterocycles for the treatment of cancer” (Merck Patent GmbH, priority 2011, dated 2015).

Usually IC50 stands for the midpoint of a concentration-inhibition curve.

Read-outs that look alike come from different tables or passages of the source.

T1 sequence (Q05397 whole entry): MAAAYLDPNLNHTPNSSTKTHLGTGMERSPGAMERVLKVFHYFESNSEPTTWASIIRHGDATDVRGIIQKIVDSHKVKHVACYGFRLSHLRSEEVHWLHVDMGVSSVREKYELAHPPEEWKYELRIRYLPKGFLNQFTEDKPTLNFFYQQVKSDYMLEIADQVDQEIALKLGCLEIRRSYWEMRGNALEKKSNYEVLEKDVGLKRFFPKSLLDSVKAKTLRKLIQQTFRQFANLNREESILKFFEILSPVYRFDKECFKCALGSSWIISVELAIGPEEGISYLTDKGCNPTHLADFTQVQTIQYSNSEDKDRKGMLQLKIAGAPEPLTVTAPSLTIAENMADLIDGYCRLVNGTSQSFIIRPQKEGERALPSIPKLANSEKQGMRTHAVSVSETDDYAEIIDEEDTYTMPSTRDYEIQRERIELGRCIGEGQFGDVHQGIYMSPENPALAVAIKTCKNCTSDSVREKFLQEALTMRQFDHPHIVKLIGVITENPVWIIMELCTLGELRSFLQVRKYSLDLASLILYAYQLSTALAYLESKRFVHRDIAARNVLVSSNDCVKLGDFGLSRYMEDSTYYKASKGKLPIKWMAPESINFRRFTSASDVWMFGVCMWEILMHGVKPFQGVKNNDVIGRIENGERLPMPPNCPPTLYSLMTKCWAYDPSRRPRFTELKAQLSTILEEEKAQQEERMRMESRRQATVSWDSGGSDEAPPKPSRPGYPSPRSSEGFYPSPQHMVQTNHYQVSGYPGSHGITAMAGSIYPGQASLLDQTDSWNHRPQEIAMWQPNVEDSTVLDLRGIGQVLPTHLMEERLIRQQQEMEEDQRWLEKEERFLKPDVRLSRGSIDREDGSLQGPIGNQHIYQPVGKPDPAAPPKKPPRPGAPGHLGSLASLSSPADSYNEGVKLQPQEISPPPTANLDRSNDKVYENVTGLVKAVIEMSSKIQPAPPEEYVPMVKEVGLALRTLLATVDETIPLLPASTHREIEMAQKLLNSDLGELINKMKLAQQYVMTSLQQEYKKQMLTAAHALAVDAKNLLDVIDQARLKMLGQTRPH

For `CN(C)CCCCNC(=O)c1cc(NCc2ccc(F)cc2F)nc(-c2cncc(C(F)(F)F)c2)n1` [Compound 53, 6-(2,4-Difluoro-benzylamino)-2-(5-trifluoromethyl-pyridin-3-yl)-pyrimidine-4-carboxylic acid (4-dimethylamino-butyl)-amide], the IC50 in assay [1] (setting [3]) is 1000 to 10000 nM; in assay [2] (Table 2, read-out: FAK IC50), < 100 nM.
The corresponding values for `NC(=O)C1CCCN(C(=O)c2cc(NCc3ccc(F)cc3F)nc(-c3cncc(C(F)(F)F)c3)n2)C1` (centres unmarked) [Compound 50, 1-[6-(2,4-Difluoro-benzylamino)-2-(5-trifluoromethyl-pyridin-3-yl)-pyrimidine-4-carbonyl]-piperidine-3-carboxylic acid amide] are 1000 to 10000 nM and < 100 nM.
The corresponding values for `CN1CCN(C(=O)CCNc2cc(NCc3ccc(F)cc3F)nc(-c3cncc(C(F)(F)F)c3)n2)CC1` [Compound 64, 3-[6-(2,4-Difluoro-benzylamino)-2-(5-trifluoromethyl-pyridin-3-yl)-pyrimidin-4-ylamino]-1-(4-methyl-piperazin-1-yl)-propan-1-one] are 1000 to 10000 nM and 100 to 1000 nM.
Take `CC(Nc1ccnc(-c2cccnc2N)n1)c1ccccc1C(F)(F)F` (centres unmarked) [Compound 115, 2-(2-Aminopyridin-3-yl)-N-{1-[2-(trifluoro-methyl)phenyl]ethyl}pyrimidin-4-amine]: the IC50 is > 10000 nM in assay [1] (setting [4]) and 100 to 1000 nM in assay [2] (Table 3, read-out: FAK IC50).
As to `Fc1ccc(F)c(CNc2ccnc(-c3cncc(C(F)(F)F)c3)n2)c1` [Compound 154, N-[(2,5-difluorophenyl)methyl]-2-[5-(trifluoromethyl)-3-pyridyl]pyrimidin-4-amine], the IC50 was in the range of 1000 to 10000 nM in assay [1] (setting [5]) and 100 to 1000 nM in assay [2] (Table 4, read-out: IC50 FAK).
For the compound `CN1CCN(C(=O)CCNC(=O)c2cc(NCc3ccc(F)cc3F)nc(-c3cncc(C(F)(F)F)c3)n2)CC1` [Compound 44, 6-(2,4-Difluoro-benzylamino)-2-(5-trifluoromethyl-pyridin-3-yl)-pyrimidine-4-carboxylic acid [3-(4-methyl-piperazin-1-yl)-3-oxo-propyl]-amide], the IC50 in assay [1] (setting [3]) was 1000 to 10000 nM; in assay [2] (Table 2, read-out: FAK IC50), < 100 nM.
Regarding `FC(F)(F)c1cncc(-c2nccc(NCc3ccccc3C(F)(F)F)n2)c1` [Compound 112, N-[2-(Trifluoromethyl)benzyl]-2-[5-(trifluoromethyl)pyridin-3-yl]pyrimidin-4-amine], the IC50 in assay [1] (setting [4]) is 1000 to 10000 nM; in assay [2] (Table 3, read-out: FAK IC50) it was < 100 nM.
The corresponding values for `Clc1cncc(-c2nccc(NCc3cccc4nsnc34)n2)c1` [Compound 131, N-(2,1,3-Benzothiadiazol-4-ylmethyl)-2-(5-chloropyridin-3-yl)pyrimidin-4-amine] are > 10000 nM and < 100 nM.
Take `Fc1cncc(-c2nccc(NCc3ccccc3C(F)(F)F)n2)c1` [Compound 107, 2-(5-Fluoropyridin-3-yl)-N-[2-(trifluoromethyl)benzyl]pyrimidin-4-amine]: the half-maximal inhibitory concentration (IC50) in assay [1] (setting [4]) is > 10000 nM; in assay [2] (Table 3, read-out: FAK IC50) it was 100 to 1000 nM.
With `NC(=O)C1CCCN(c2cc(NCc3ccc(F)cc3F)nc(-c3cncc(C(F)(F)F)c3)n2)C1` (centres unmarked) [Compound 55, 1-[6-(2,4-Difluoro-benzylamino)-2-(5-trifluoromethyl-pyridin-3-yl)-pyrimidin-4-yl]-piperidine-3-carboxylic acid amide], the concentration for half-maximal inhibition (IC50) in assay [1] (setting [3]) fell in the range of 1000 to 10000 nM; in assay [2] (Table 2, read-out: FAK IC50), 100 to 1000 nM.
As to `CCN(CC)C(=O)CCNc1cc(NCc2ccc(F)cc2F)nc(-c2cncc(C(F)(F)F)c2)n1` [Compound 62, 3-[6-(2,4-Difluoro-benzylamino)-2-(5-trifluoromethyl-pyridin-3-yl)-pyrimidin-4-ylamino]-N,N-diethyl-propionamide], the IC50 in assay [1] (setting [3]) lay within 1000 to 10000 nM; in assay [2] (Table 2, read-out: FAK IC50) it was 100 to 1000 nM.
`Nc1ncc(Cl)cc1-c1nccc(NCc2ccc(F)cc2C(F)(F)F)n1` [Compound 134, 2-(2-Amino-5-chloropyridin-3-yl)-N-[4-fluoro-2-(trifluoromethyl)benzyl]pyrimidin-4-amine]: the half-maximal inhibitory concentration (IC50) in assay [1] (setting [4]) was 1000 to 10000 nM; in assay [2] (Table 3, read-out: FAK IC50) it was < 100 nM.
As to `O=C1CCCN1CCCNc1cc(NCc2ccc(F)cc2F)nc(-c2cncc(C(F)(F)F)c2)n1` [Compound 57, 1-{3-[6-(2,4-Difluoro-benzylamino)-2-(5-trifluoromethyl-pyridin-3-yl)-pyrimidin-4-ylamino]-propyl}-pyrrolidin-2-one], the IC50 fell in the range of 1000 to 10000 nM in assay [1] (setting [3]) and 100 to 1000 nM in assay [2] (Table 2, read-out: FAK IC50).
For `O=C(NCCN1CCCC1=O)c1cc(NCc2ccc(F)cc2F)nc(-c2cncc(C(F)(F)F)c2)n1` [Compound 160, 6-[(2,4-difluorophenyl)methylamino]-N-[2-(2-oxopyrrolidin-1-yl)ethyl]-2-[5-(trifluoromethyl)-3-pyridyl]pyrimidine-4-carboxamide], the IC50 in assay [1] (setting [5]) is 100 to 1000 nM; in assay [2] (Table 4, read-out: IC50 FAK) it was < 100 nM.
For `Nc1ncccc1-c1nccc(NCc2ccc(F)cc2F)n1` [Compound 98, 2-(2-Aminopyridin-3-yl)-N-(2,4-difluorobenzyl)pyrimidin-4-amine], the IC50 in assay [1] (setting [4]) was > 10000 nM; in assay [2] (Table 3, read-out: FAK IC50), 100 to 1000 nM.
Consider `Clc1cncc(-c2nccc(NCc3cccc4c3OCO4)n2)c1` [Compound 127, N-(1,3-Benzodioxol-4-ylmethyl)-2-(5-chloropyridin-3-yl)pyrimidin-4-amine], for which the IC50 in assay [1] (setting [4]) is > 10000 nM; in assay [2] (Table 3, read-out: FAK IC50) it was < 100 nM.
The corresponding values for `Nc1ncccc1-c1nccc(NCc2ccccc2C(F)(F)F)n1` [Compound 77, 2-(2-Aminopyridin-3-yl)-N-[2-(trifluoromethyl)benzyl]pyrimidin-4-amine] are > 10000 nM and 100 to 1000 nM.
The corresponding values for `CC(Nc1ccnc(-c2cncc(C(F)(F)F)c2)n1)c1ccccc1C(F)(F)F` (centres unmarked) [Compound 130, N-{1-[2-(Trifluoromethyl)phenyl]ethyl}-2-[5-(trifluoromethyl)pyridin-3-yl]pyrimidin-4-amine] are > 10000 nM and < 100 nM.
In the case of `Fc1ccc(CNc2ccnc(-c3cncc(C(F)(F)F)c3)n2)c(C(F)(F)F)c1` [Compound 123, N-[4-Fluoro-2-(trifluoromethyl)benzyl]-2-[5-(trifluoromethyl)pyridin-3-yl]pyrimidin-4-amine], the IC50 in assay [1] (setting [4]) is 1000 to 10000 nM; in assay [2] (Table 3, read-out: FAK IC50), < 100 nM.
In the same order, the values of `FC(F)(F)c1ccccc1CNc1ccnc(-c2cccnc2)n1` [Compound 89, 2-Pyridin-3-yl-N-[2-(trifluoromethyl)benzyl]pyrimidin-4-amine] are > 10000 nM and 100 to 1000 nM.
In the same order, the values of `Nc1ncccc1-c1nccc(NCc2ccc(F)cc2C(F)(F)F)n1` [Compound 110, 2-(2-Aminopyridin-3-yl)-N-[4-fluoro-2-(trifluoromethyl)benzyl]pyrimidin-4-amine] are 1000 to 10000 nM and < 100 nM.
Turning to `Fc1ccc(CNc2ccnc(-c3cncc(C(F)(F)F)c3)n2)c(F)c1` [Compound 125, N-(2,4-Difluorobenzyl)-2-[5-(trifluoromethyl)pyridin-3-yl]pyrimidin-4-amine], the IC50 was 1000 to 10000 nM in assay [1] (setting [4]) and < 100 nM in assay [2] (Table 3, read-out: FAK IC50).
For `O=C(NCCCn1ccnc1)c1cc(NCc2ccc(F)cc2F)nc(-c2cncc(C(F)(F)F)c2)n1` [Compound 46, 6-(2,4-Difluoro-benzylamino)-2-(5-trifluoromethyl-pyridin-3-yl)-pyrimidine-4-carboxylic acid (3-imidazol-1-yl-propyl)-amide], the IC50 in assay [1] (setting [3]) was 1000 to 10000 nM; in assay [2] (Table 2, read-out: FAK IC50), < 100 nM.
With `CN1CCC(NC(=O)c2cc(NCc3ccc(F)cc3F)nc(-c3cncc(C(F)(F)F)c3)n2)CC1` [Compound 54, 6-(2,4-Difluoro-benzylamino)-2-(5-trifluoromethyl-pyridin-3-yl)-pyrimidine-4-carboxylic acid (1-methyl-piperidin-4-yl)-amide], the half-inhibitory concentration (IC50) in assay [1] (setting [3]) was 1000 to 10000 nM; in assay [2] (Table 2, read-out: FAK IC50), < 100 nM.
The corresponding values for `NC(=O)C1CCN(C(=O)c2cc(NCc3ccc(F)cc3F)nc(-c3cncc(C(F)(F)F)c3)n2)CC1` [Compound 49, 1-[6-(2,4-Difluoro-benzylamino)-2-(5-trifluoromethyl-pyridin-3-yl)-pyrimidine-4-carbonyl]-piperidine-4-carboxylic acid amide] are 1000 to 10000 nM and < 100 nM.
